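Growth conditions: 96-well plates. Treatment: test compound, 48 hours, 5 concentrations. Analysis: linear interpolation between bracketing concentrations; unreached endpoints set to highest concentration. GI50: concentration for 50% inhibition of growth.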 Calls of active or inactive are those of the source. Cut-off read from the data, not from the text of the source: active = GI50 up to about 1.1 µM and inactive = higher.
What was measured:
Assay in all cases: NCI anticancer screen, dose series, 48 h
786-0 = tested on: 786-0
A498 = tested on: A498
BT-549 = tested on: BT-549
COLO 205 = tested on: COLO 205
DMS-273 = tested on: DMS-273
DU-145 = tested on: DU-145
HCT-15 = tested on: HCT-15
HOP-18 = tested on: HOP-18
HOP-62 = tested on: HOP-62
HOP-92 = tested on: HOP-92
HT-29 = tested on: HT-29
Hs-578T = tested on: Hs-578T
KM-20L2 = tested on: KM-20L2
LOX IMVI = tested on: LOX IMVI
MCF7 = tested on: MCF7
MDA-MB-435 = tested on: MDA-MB-435
MDA-N = tested on: MDA-N
MOLT-4 = tested on: MOLT-4
Malme-3M = tested on: Malme-3M
NCI-H23 = tested on: NCI-H23
NCI-H460 = tested on: NCI-H460
NCI-H522 = tested on: NCI-H522
NCI/ADR-RES = tested on: NCI/ADR-RES
OVCAR-3 = tested on: OVCAR-3
OVCAR-4 = tested on: OVCAR-4
OVCAR-8 = tested on: OVCAR-8
PC-3 = tested on: PC-3
RXF 631 = tested on: RXF 631
SF-268 = tested on: SF-268
SF-295 = tested on: SF-295
SF-539 = tested on: SF-539
SK-OV-3 = tested on: SK-OV-3
SN12C = tested on: SN12C
SNB-19 = tested on: SNB-19
T47D = tested on: T47D
U-251 = tested on: U-251
UACC-62 = tested on: UACC-62
A549 = tested on: A549
ACHN = tested on: ACHN
CAKI-1 = tested on: CAKI-1
CCRF-CEM = tested on: CCRF-CEM
DMS-114 = tested on: DMS-114
EKVX = tested on: EKVX
HCT-116 = tested on: HCT-116
IGROV-1 = tested on: IGROV-1
K562 = tested on: K562
KM12 = tested on: KM12
M14 = tested on: M14
M19-MEL = tested on: M19-MEL
NCI-H226 = tested on: NCI-H226
OVCAR-5 = tested on: OVCAR-5
RPMI-8226 = tested on: RPMI-8226
RXF 393 = tested on: RXF 393
SK-MEL-2 = tested on: SK-MEL-2
SK-MEL-5 = tested on: SK-MEL-5
SNB-75 = tested on: SNB-75
SNB-78 = tested on: SNB-78
SW-620 = tested on: SW-620
TK-10 = tested on: TK-10
UACC-257 = tested on: UACC-257
UO-31 = tested on: UO-31
XF498 = tested on: XF498
DLD-1 = tested on: DLD-1
LXFL 529 = tested on: LXFL 529
SK-MEL-28 = tested on: SK-MEL-28
SR = tested on: SR

## CC(=O)OCC1OC(n2c(=S)n(-c3ccc([N+](=O)[O-])cc3)c(=O)c3ccccc32)C(OC(C)=O)C(OC(C)=O)C1OC(C)=O (centres undefined)
786-0
  GI50: 15.3 µM (inactive)
A498
  GI50: 25.5 µM (inactive)
BT-549
  GI50: 2.69 µM (inactive)
COLO 205
  GI50: 27.5 µM (inactive)
DMS-273
  GI50: 21.9 µM (inactive)
DU-145
  GI50: 24.9 µM (inactive)
HCT-15
  GI50: 29.3 µM
HOP-18
  GI50: 13.4 µM (inactive)
HOP-62
  GI50: 21.6 µM (inactive)
HOP-92
  GI50: 25.5 µM (inactive)
HT-29
  GI50: 21 µM (inactive)
Hs-578T
  GI50: 4.46 µM (inactive)
KM-20L2
  GI50: 28.3 µM (inactive)
LOX IMVI
  GI50: 13.2 µM (inactive)
MCF7
  GI50: 16.7 µM (inactive)
MDA-MB-435
  GI50: 27 µM (inactive)
MDA-N
  GI50: 27.7 µM (inactive)
MOLT-4
  GI50: 8.22 µM (inactive)
Malme-3M
  GI50: 15.2 µM (inactive)
NCI-H23
  GI50: 21.3 µM (inactive)
NCI-H460
  GI50: 21.7 µM (inactive)
NCI-H522
  GI50: 15.4 µM (inactive)
NCI/ADR-RES
  GI50: 30.7 µM (inactive)
OVCAR-3
  GI50: 17.1 µM (inactive)
OVCAR-4
  GI50: 20.8 µM (inactive)
OVCAR-8
  GI50: 20.1 µM (inactive)
PC-3
  GI50: 15.8 µM (inactive)
RXF 631
  GI50: 19.2 µM (inactive)
SF-268
  GI50: 18.5 µM (inactive)
SF-295
  GI50: 23.3 µM (inactive)
SF-539
  GI50: 14.3 µM (inactive)
SK-OV-3
  GI50: 23.3 µM (inactive)
SN12C
  GI50: 19.1 µM (inactive)
SNB-19
  GI50: 19.9 µM (inactive)
T47D
  GI50: 17.3 µM (inactive)
U-251
  GI50: 18.4 µM (inactive)
UACC-62
  GI50: 15.7 µM (inactive)

## CCCCOC1CC2(c3ccc(OC)cc3)C(=O)c3ccccc3N2O1 (centres undefined)
786-0
  GI50: 88.1 µM (inactive)
A498
  GI50: > 10 µM (inactive)
A549
  GI50: 43.8 µM (inactive)
ACHN
  GI50: > 10 µM (inactive)
CAKI-1
  GI50: 41.6 µM (inactive)
CCRF-CEM
  GI50: 31.5 µM (inactive)
COLO 205
  GI50: 27.1 µM (inactive)
DMS-114
  GI50: 30 µM (inactive)
DMS-273
  GI50: > 10 µM (inactive)
EKVX
  GI50: 40.7 µM (inactive)
HCT-116
  GI50: 37.5 µM (inactive)
HCT-15
  GI50: > 10 µM
IGROV-1
  GI50: > 10 µM (inactive)
K562
  GI50: 26.5 µM (inactive)
KM-20L2
  GI50: > 10 µM (inactive)
KM12
  GI50: 62.2 µM (inactive)
LOX IMVI
  GI50: > 10 µM (inactive)
M14
  GI50: 46.1 µM (inactive)
M19-MEL
  GI50: > 10 µM (inactive)
MOLT-4
  GI50: 19 µM (inactive)
Malme-3M
  GI50: 19.2 µM (inactive)
NCI-H226
  GI50: > 10 µM (inactive)
NCI-H460
  GI50: > 10 µM (inactive)
NCI-H522
  GI50: 21.3 µM (inactive)
OVCAR-3
  GI50: 56.1 µM (inactive)
OVCAR-5
  GI50: > 10 µM (inactive)
OVCAR-8
  GI50: 82.2 µM (inactive)
RPMI-8226
  GI50: 18 µM (inactive)
RXF 393
  GI50: 16.6 µM (inactive)
RXF 631
  GI50: > 10 µM (inactive)
SF-268
  GI50: 50.5 µM (inactive)
SF-295
  GI50: 42.1 µM (inactive)
SF-539
  GI50: 90.6 µM (inactive)
SK-MEL-2
  GI50: 71.6 µM (inactive)
SK-MEL-5
  GI50: 31.7 µM (inactive)
SK-OV-3
  GI50: > 100 µM (inactive)
SN12C
  GI50: > 10 µM (inactive)
SNB-19
  GI50: > 10 µM (inactive)
SNB-75
  GI50: > 100 µM (inactive)
SNB-78
  GI50: > 10 µM (inactive)
SW-620
  GI50: 65 µM (inactive)
TK-10
  GI50: > 100 µM (inactive)
U-251
  GI50: > 10 µM (inactive)
UACC-257
  GI50: 16 µM (inactive)
UACC-62
  GI50: > 10 µM (inactive)
UO-31
  GI50: > 10 µM (inactive)
XF498
  GI50: > 10 µM (inactive)

## O=C(O)Cn1c(=O)[nH]c(=O)c2c1ncn2Cc1ccccc1
786-0
  GI50: > 100 µM (inactive)
A498
  GI50: > 100 µM (inactive)
A549
  GI50: > 100 µM (inactive)
ACHN
  GI50: > 100 µM (inactive)
CAKI-1
  GI50: > 100 µM (inactive)
CCRF-CEM
  GI50: > 100 µM (inactive)
COLO 205
  GI50: > 100 µM (inactive)
DLD-1
  GI50: > 100 µM (inactive)
DMS-114
  GI50: > 100 µM (inactive)
DMS-273
  GI50: > 100 µM (inactive)
EKVX
  GI50: > 100 µM (inactive)
HCT-116
  GI50: > 100 µM (inactive)
HCT-15
  GI50: > 100 µM
HOP-62
  GI50: > 100 µM (inactive)
HOP-92
  GI50: > 100 µM (inactive)
HT-29
  GI50: > 100 µM (inactive)
K562
  GI50: > 100 µM (inactive)
KM-20L2
  GI50: > 100 µM (inactive)
KM12
  GI50: > 100 µM (inactive)
LXFL 529
  GI50: > 100 µM (inactive)
M14
  GI50: > 100 µM (inactive)
M19-MEL
  GI50: > 100 µM (inactive)
MOLT-4
  GI50: > 100 µM (inactive)
Malme-3M
  GI50: > 100 µM (inactive)
NCI-H226
  GI50: > 100 µM (inactive)
NCI-H23
  GI50: > 100 µM (inactive)
NCI-H460
  GI50: > 100 µM (inactive)
NCI-H522
  GI50: > 100 µM (inactive)
OVCAR-3
  GI50: > 100 µM (inactive)
OVCAR-5
  GI50: > 100 µM (inactive)
OVCAR-8
  GI50: > 100 µM (inactive)
RPMI-8226
  GI50: > 100 µM (inactive)
RXF 631
  GI50: > 100 µM (inactive)
SF-268
  GI50: > 100 µM (inactive)
SF-539
  GI50: > 100 µM (inactive)
SK-MEL-28
  GI50: > 100 µM (inactive)
SK-MEL-2
  GI50: > 100 µM (inactive)
SK-MEL-5
  GI50: > 100 µM (inactive)
SK-OV-3
  GI50: > 100 µM (inactive)
SN12C
  GI50: > 100 µM (inactive)
SNB-19
  GI50: > 100 µM (inactive)
SNB-75
  GI50: > 100 µM (inactive)
SNB-78
  GI50: > 100 µM (inactive)
SR
  GI50: > 100 µM (inactive)
SW-620
  GI50: > 100 µM (inactive)
TK-10
  GI50: > 100 µM (inactive)
U-251
  GI50: > 100 µM (inactive)
UACC-62
  GI50: > 100 µM (inactive)
UO-31
  GI50: > 100 µM (inactive)
XF498
  GI50: > 100 µM (inactive)
